# In PMC8146883, “A New Thermophilic Ene-Reductase from the Filamentous Anoxygenic Phototrophic Bacterium Chloroflexus aggregans” (Microorganisms, 2021):
# Target: T1, CaOYE (Chloroflexus aggregans, UniProt B8G5D6)
# T1 construct: gene Cagg_2779; full-length ORF in pET-28a(+) (NdeI/BamHI), N-terminal His6-tag, E. coli BL21(DE3); model visible Met1 to Trp354; monomer in solution, dimer in crystal
# Test: X-ray crystal structure, […] Å
# Type: binding
# Conditions: non-covalent, active site; crystals from 100 mM HEPES pH 7.0, 1.1 M sodium malonate
# T1 sequence (B8G5D6 whole entry): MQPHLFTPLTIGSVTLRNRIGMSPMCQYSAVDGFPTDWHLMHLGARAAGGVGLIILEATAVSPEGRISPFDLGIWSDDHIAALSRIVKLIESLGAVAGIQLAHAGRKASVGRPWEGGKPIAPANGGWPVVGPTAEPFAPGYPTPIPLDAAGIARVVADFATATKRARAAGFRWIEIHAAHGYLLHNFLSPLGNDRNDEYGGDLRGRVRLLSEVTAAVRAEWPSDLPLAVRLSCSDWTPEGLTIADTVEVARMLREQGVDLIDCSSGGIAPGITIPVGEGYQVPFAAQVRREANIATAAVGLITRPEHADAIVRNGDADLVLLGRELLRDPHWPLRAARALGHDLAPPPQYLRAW
structure (smiles),measurement,value
Cc1cc2nc3c(=O)[nH]c(=O)nc-3n(C[C@H](O)[C@H](O)[C@H](O)COP(=O)(O)O)c2cc1C [FMN],"X-ray crystal structure, 2.40 Å",The enzyme accommodates one molecule of FMN cofactor on the top of the β-barrel core
